Assays:
Assay type in all cases: cell-based
K562 strain = assay: Viable cell counts (Trypan blue staining), K562 strain; settings: 5 μM peptide, vs untreated
Method: (§1) Specifically, cells plated such that the density thereof became 1×10^4 cells/3.5 cm well for one plate (6 wells/plate) for each cell strain were cultured for one night in a culture solution having the same composition as those of the culture solutions described in the reference examples. After culturing of 1 well out of the 6 wells was completed, Trypan blue staining was performed on the 1 well, and viable cell counts were counted. The remaining 5 wells were cultured after exchanging the culture solution with a liquid mixture of a Lipofectamine (registered trademark) reagent (12.5 μL/well) and a culture solution (2 mL/well) of which the shRNA concentration became 2.5 μg/well. Then, Trypan blue staining was performed on 1 well 24 hours after the exchange of a culture medium, 1 well 48 hours after the exchange of a culture medium, and the remaining 1 well 72 hours after the exchange of a culture medium, and the viable cell counts were counted. As a control, the viable cell counts were measured (untreated) by performing the culturing similarly to the above except that a culture medium was exchanged with a culture solution to which no shRNA was added.
(§2) Specifically, the viable cell counts were measured after culturing the cells similarly to Example 1 except that a 5 μM culture solution containing a control peptide, a peptide 1, or a peptide 2 was used instead of the culture solution (2 mL/well) of which the shRNA concentration was 2.5 μg/well. The viable cell counts were measured (untreated) by performing the culturing similarly to Example 1 using a culture solution containing no peptide 2, as a control.

293 FLG/LIX1L [1] = assay: MTT assay, 293 FLG/LIX1L cells
Method: (§3) Specifically, first, cells plated in a 96-well microplate such that the density thereof became 5×10^3 cells/well were cultured for one night in a culture solution having the same composition as those in the reference examples. […] After the culturing, an MTT-containing PBS solution was added to the culture solution, and the mixture was incubated for 4 hours. Then, formazan which was generated by putting 100 μL of isopropanol (containing 34 (v/v) % of hydrochloric acid) into each of the wells was dissolved. The absorbance of each of the wells of the microplate at 570 nm was measured using a microplate reader. As controls, culturing was performed in the same manner except that no peptide was added to the strains, an MTT assay was performed thereon, and the absorbance at 570 nm was measured (untreated).
(§4) In the method for measuring the viable cell counts, cells were cultured for 3 days similarly to Example 1 except that a 25 μM (10 μM for an HL-60 strain, a K562 strain, and a U937 strain) culture solution containing a control peptide or a peptide 1 was used, and the viable cell counts were measured. As a comparison, culturing was performed similarly to the above using a culture solution containing no peptide, and the viable cell counts were measured (untreated).
(§5) In addition, in the method for performing an MTT assay, cells were cultured for 72 hours similarly to Example 2 except that a peptide to be added to a strain was set to a control peptide or a peptide 1 at 25 μM (10 μM for an HL-60 strain, a K562 strain, and a U937 strain), an MTT assay was performed thereon, and the absorbance at 570 nm was measured. As a comparison, culturing was performed similarly to the above using a culture solution containing no peptide, and the MTT assay was performed thereon (untreated).
(§6) Specifically, the cells were cultured for 72 hours similarly to Example 2 except that a peptide to be added to a cell was set to a peptide 1, 2, 5, or 6, MTT assays were performed thereon, and the absorbance at 570 nm was measured. As a comparison, culturing was performed similarly to the above using a culture solution containing no peptide, and the MTT assay was performed thereon (untreated).
(§7) Specifically, the cells were cultured for 72 hours similarly to Example 2 except that peptides to be added to cell strains were set to peptides 7 to 14, MTT assays were performed thereon, and the absorbance at 570 nm was measured. […]
(§8) Specifically, the cells were cultured for 72 hours similarly to Example 2 except that a peptide to be added to a cell strain was set to a peptide 15 or 16, an MTT assay was performed thereon, and the absorbance at 570 nm was measured. […]

HL-60 strain [2] = assay: MTT assay, HL-60 strain
Method: Specifically, first, cells plated in a 96-well microplate such that the density thereof became 5×10^3 cells/well were cultured for one night in a culture solution having the same composition as those in the reference examples. Thereafter, the culture solution was exchanged with 100 μL of a culture solution of which the concentration of peptides is 0 μM to 100 μM for culturing for 72 hours. After the culturing, an MTT-containing PBS solution was added to the culture solution, and the mixture was incubated for 4 hours. Then, formazan which was generated by putting 100 μL of isopropanol (containing 34 (v/v) % of hydrochloric acid) into each of the wells was dissolved. The absorbance of each of the wells of the microplate at 570 nm was measured using a microplate reader. As controls, culturing was performed in the same manner except that no peptide was added to the strains, an MTT assay was performed thereon, and the absorbance at 570 nm was measured (untreated).
as §4, §5

NUGC-4 strain = assay: MTT assay, NUGC-4 strain
Method: as §3, §4, §5, §6, §7, §8

HL-60 strain [3] = assay: Viable cell counts (Trypan blue staining), HL-60 strain; settings: 5 μM peptide, vs untreated
Method: as §1, §2

293 FLG/LIX1L [4] = assay: Number of colonies formed, 293 FLG/LIX1L (Example 6); settings: peptide 25 μM, cultured for 14 days
Method: Specifically, 293 FLG was plated in one plate (6 wells/plate) and 293 FLG/LIX1L was plated in two plates such that the density of the cells became 1×10^4 cells/3.5 cm well. Among these, one of the plates in which 293 FLG was plated and the plate in which 293 FLG/LIX1L was plated were cultured for 14 days in a 10% vol. % FCS-containing DMEM culture medium. The remaining one of the plates in which 293 FLG/LIX1L was plated was cultured for 14 days in a 10% vol. % FCS-containing DMEM culture medium in which the peptide 1 was made to be included such that the concentration thereof became 25 μM. Each of the wells after the culturing was observed under a microscope, and the number of colonies formed was measured.

RPMI8226 strain = assay: Viable cell counts (Trypan blue staining), RPMI8226 strain; settings: 5 μM peptide, up to 72 hours, vs untreated
Method: as §1, with “added. […]” for “added.”

[5] = 72 hours, peptide concentrations up to 250 μM
[6] = peptide 25 μM, 3 days / 72 hours

`CC(C)[C@H](NC(=O)[C@H](Cc1ccc(O)cc1)NC(=O)[C@H](CS)NC(=O)[C@@H](NC(=O)[C@H](Cc1ccc(O)cc1)NC(=O)[C@@H]1CCCN1C(=O)[C@@H]1CCCN1C(=O)[C@H](CO)NC(=O)[C@H](CC(N)=O)NC(=O)[C@H](CO)NC(=O)[C@@H]1CCCN1C(=O)CCCCCNC(=O)[C@H](CCCNC(=N)N)NC(=O)[C@H](CCCNC(=N)N)NC(=O)[C@H](CCCNC(=N)N)NC(=O)[C@H](CCC(N)=O)NC(=O)[C@H](CCCNC(=N)N)NC(=O)[C@H](CCCNC(=N)N)NC(=O)[C@H](CCCCN)NC(=O)[C@H](CCCCN)NC(=O)[C@H](CCCNC(=N)N)NC(=O)CNC(=O)[C@@H](N)Cc1ccc(O)cc1)C(C)C)C(N)=O` [peptide 1, YGRKKRRQRRR-X-PSNSPPYVCYV-NH2] was tested, and the viable cell counts (K562 strain; after 72 hours) was “very small”, the viable cell counts (K562 strain; after culturing for 24 hours) was “decreased” and the “cell proliferation (MTT assay, absorbance at 570 nm)” value (293 FLG/LIX1L [1]; [5]) was “inhibited”. The “cell proliferation (viable cell counts and MTT assay)” value (293 FLG/LIX1L [1]; [6]) was “inhibited”, the “concentration at which a dominant effect of inhibiting the cell proliferation was recognized” value (HL-60 strain [2]; MTT assay, 72 hours) was “greater than or equal to 6.25 μM” and the “cell proliferation (viable cell counts and MTT assay)” value (HL-60 strain [2]; peptide 10 μM, 3 days / 72 hours) was “inhibited”. For the same compound, the “cell proliferation (MTT assay, absorbance at 570 nm)” value (NUGC-4 strain; [5]) was “inhibited”, the “cell proliferation (viable cell counts and MTT assay)” value (NUGC-4 strain; [6]) was “not inhibited” and the viable cell counts (HL-60 strain [3]; after 72 hours) was “very small”. The viable cell counts (HL-60 strain [3]; after culturing for 24 hours) was “decreased”, the “number of colonies formed” value (293 FLG/LIX1L [4]) was “inhibited” and the viable cell counts (RPMI8226 strain) was “the same as those in the untreated case”.
